# Measured values reported in patent US20200330400A1, “METHODS FOR THE TREATMENT OF CANCER USING COENZYME Q10 AND FATTY ACID METABOLISM INHIBITORS” (Berg LLC, priority 2016, published 2020).
# Columns and labels:
# [1] = tested on: MIA PaCa-2 pancreatic cancer cells; test: Cell viability of MIA PaCa-2 pancreatic cancer cells exposed to Coenzyme Q10 alone or with fatty acid metabolism inhibitors; format: cell-based; details: for Sensitivity of cells to Coenzyme Q10 when treated in combination (reduced viability): co-treatment with named agent
# Text: Cell viability was next assessed in MIA PaCa-2 pancreatic cancer cells exposed to Coenzyme Q10 alone or in combination with the fatty acid metabolism inhibitors C75, etomoxir, trimetazidine, metformin, and the Stearoyl-CoA desaturase-1 (SCD-1) inhibitor A939572. […] SCD-1 is an endoplasmic reticulum enzyme that catalyzes the formation of the monounsaturated fatty acids oleic acid and palmitoleic acid from stearoyl-CoA and palmitoyl-CoA. Oleic acid and palmitoleic acid are major components of membrane phospholipids, cholesterol esters and alkyl-diacylglycerol. Thus SCD-1 is a key enzyme in fatty acid metabolism. Inhibition of SCD-1 results in depletion of mono-unsaturated fatty acids and reduction of lipid storage.
# [2] = tested on: MDA-MB231 breast cancer cells; test: Cell viability of MDA-MB231 breast cancer cells exposed to Coenzyme Q10 alone or with fatty acid metabolism inhibitors; format: cell-based, human; details: for Sensitivity of cells to Coenzyme Q10 when treated in combination (shift of Coenzyme Q10 dose-response curve): MDA-MB231, co-treatment with named agent
# Procedure: (§1) Cell viability was assessed in MDA-MB231 and SkBr-3 breast cancer cells exposed to Coenzyme Q10 alone or in combination with the fatty acid metabolism inhibitors C75, etomoxir, and trimetazidine, as well as a more pleiotropic fatty acid metabolism modulator, metformin. […] Metformin is used clinically as an anti-diabetic agent to suppress glucose production by the liver; however, the mechanism of action remains incompletely understood.
# (§2) Coenzyme Q10 was applied to the cells in a 4% Coenzyme Q10 nanosuspension formulation (as described in WO 2011/112900, the entire contents of which are expressly incorporated herein by reference) comprising a phosphatidylcholine (e.g., dimyristoylphosphatidyl choline (DMPC)).
# [3] = tested on: SKBr-3 breast cancer cells; test: Cell viability of SKBr-3 breast cancer cells exposed to Coenzyme Q10 alone or with fatty acid metabolism inhibitors; format: cell-based; details: for Sensitivity of cells to Coenzyme Q10 when treated in combination (shift of Coenzyme Q10 dose-response curve): SkBr-3, co-treatment with named agent
# Procedure: as §1, §2
# [4] = tested on: fatty acid metabolism genes FASN, CPT1, ACSL1 and DGAT1; test: mRNA expression of fatty acid metabolism genes in MDA-MB231 cells treated with Coenzyme Q10; format: cell-based, human; details: Coenzyme Q10 alone
# Text: FASN catalyzes the synthesis of the fatty acid palmitate (C16:0, a long-chain saturated fatty acid) from acetyl-CoA and malonyl-CoA, in the presence of NADPH. CPT-1 is a mitochondrial enzyme responsible for the formation of acyl carnitines by catalyzing the transfer of the acyl group of a long-chain fatty acyl-CoA from coenzyme A to l-carnitine. CPT-1 mediated formation of acyl carnitine allows for subsequent movement of the acyl carnitine from the cytosol into the intermembrane space of mitochondria. ACSL1 activates the degradation of complex fatty acids. Specifically, this enzyme catalyzes the formation of fatty acyl-CoA by a two-step process proceeding through an adenylated intermediate. DGAT1 catalyzes the formation of triglycerides from diacylglycerol and Acyl-CoA. The reaction catalyzed by DGAT is considered the terminal and only committed step in triglyceride synthesis and to be essential for the formation of adipose tissue.
# [5] = tested on: MDA-MB231 breast cancer cells; test: Free glycerol, DAG and TAG content in MDA-MB231 cells treated with Coenzyme Q10; format: cell-based, human; details: Coenzyme Q10 treatment
# Text: FIGS. 6B and 6C show diacylglyceride (DAG) (B), and triacylglyceride (TAG) content (C) in MDA-MB231 breast cancer cells treated with Coenzyme Q10.
# To further evaluate the effect of Coenzyme Q10 on cancer cell lipid composition, structural lipidomic analysis was used to assess the metabolic fate of the lipid components of the Coenzyme Q10 formulation itself, such as DMPC. DMPC is a 14:0 lipid which is not found endogenously in human cells. Accordingly, it was possible to distinguish between DMPC-containing species based on the length of the fatty acid chains, e.g. 28:0 DAG and 42:0 TAG are not found endogenously. […] Accordingly, cancer cells treated with lipid-containing formulations may be especially sensitive to fatty acid metabolism inhibitors, due to the increased fatty acid metabolism activity resulting from storage and degradation of the lipid formulation components.
SMILES,Sensitivity of cells to Coenzyme Q10 when treated in combination (reduced viability) [1],Sensitivity of cells to Coenzyme Q10 when treated in combination (shift of Coenzyme Q10 dose-response curve) [2],Sensitivity of cells to Coenzyme Q10 when treated in combination (shift of Coenzyme Q10 dose-response curve) [3],further results
CNC(=O)c1cccc(NC(=O)N2CCC(Oc3ccccc3Cl)CC2)c1 [A939572],more sensitive to Coenzyme Q10,,,
C=C1C(=O)OC(CCCCCCCC)C1C(=O)O (stereo not shown) [C75],more sensitive to Coenzyme Q10,more sensitive to Coenzyme Q10,more sensitive to Coenzyme Q10,
COC1=C(OC)C(=O)C(C/C=C(\C)CC/C=C(\C)CC/C=C(\C)CC/C=C(\C)CC/C=C(\C)CC/C=C(\C)CC/C=C(\C)CC/C=C(\C)CC/C=C(\C)CCC=C(C)C)=C(C)C1=O [Coenzyme Q10],,,,"EC50 ([2]; EC50 of Coenzyme Q10 (4% nanosuspension) alone or plus named inhibitor, inhibitor concentration not in table (FIGS. 1-4: C75 5 μM, Etomoxir 50 μM, Trimetazidine 375 μM, metformin 500 μM)): 165 µM; EC50 ([3]; EC50 of Coenzyme Q10 (4% nanosuspension) alone or plus named inhibitor, inhibitor concentration not in table): 599 µM; EC50 ([1]; Coenzyme Q10 alone (A939572 experiment, FIG. 10)): 142 µM; EC50 ([1]; Coenzyme Q10 alone (metformin experiment, FIG. 8)): 261 µM; EC50 ([1]; Coenzyme Q10 alone or with Etomoxir 100 μM, C75 10 μM or Trimetazidine 250 μM (FIG. 9)): 284 µM; mRNA expression of FASN, CPT-1, ACSL1 and DGAT1 [4]: dose- and time-dependent increase in mRNA expression; Diacylglyceride (DAG), triacylglyceride (TAG) and glycerol content [5]: accumulation of diacylglyceride (DAG), triacylglyceride (TAG) and the triglyceride backbone, glycerol"
"CCOC(=O)C1(CCCCCCOc2ccc(Cl)cc2)CO1 (stereo not shown) [Etomoxir, 2-(6-(4-chlorophenoxy)-hexyl)-oxirane-2-carboxylic acid ethyl ester]",more sensitive to Coenzyme Q10,more sensitive to Coenzyme Q10,more sensitive to Coenzyme Q10,
CN(C)C(=N)N=C(N)N [Metformin],more sensitive to Coenzyme Q10,did not alter cytotoxic responses to Coenzyme Q10,did not alter cytotoxic responses to Coenzyme Q10,Cell viability ([1]; Coenzyme Q10 and 0.5 mM metformin): lower viability than cells treated with Coenzyme Q10 alone; Cell viability ([1]; Coenzyme Q10 and 1 mM or 5 mM metformin): lower viability than cells treated with Coenzyme Q10 and 0.5 mM metformin
COc1ccc(CN2CCNCC2)c(OC)c1OC [Trimetazidine],more sensitive to Coenzyme Q10,more sensitive to Coenzyme Q10,more sensitive to Coenzyme Q10,
